# Legend:
# Assay type in all cases: in vivo
# [1] = tested on: barnyardgrass (Echinochloa crus-galli); assay: Test A pre-/postemergence plant response
# Procedure, shortened: (§1)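 Ratings are visual, 0–100, where 100 means complete control and 0 no effect, taken roughly 10 days after treatment by comparison with untreated controls. Formulation: non-phytotoxic solvent mixture with surfactant.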
# [2] = tested on: corn (Zea mays); assay: Test A pre-/postemergence plant response
# Procedure, shortened: as §1
# [3] = tested on: giant foxtail (Setaria faberi); assay: Test A pre-/postemergence plant response
# Procedure, shortened: as §1
# [4] = tested on: large crabgrass (Digitaria sanguinalis); assay: Test A pre-/postemergence plant response
# Procedure, shortened: as §1
# [5] = tested on: morningglory (Ipomoea coccinea); assay: Test A pre-/postemergence plant response
# Procedure, shortened: as §1
# [6] = tested on: pigweed (Amaranthus retroflexus); assay: Test A pre-/postemergence plant response
# Procedure, shortened: as §1
# [7] = tested on: velvetleaf (Abutilon theophrasti); assay: Test A pre-/postemergence plant response
# Procedure, shortened: as §1
# [8] = tested on: wheat (Triticum aestivum); assay: Test A pre-/postemergence plant response
# Procedure, shortened: as §1
# [9] = tested on: canarygrass (Phalaris minor); assay: Test B postemergence plant response; details: for Canarygrass plant response rating: 8 g ai/ha, postemergence, 0-100 scale; for Plant response rating, Canarygrass: Postemergence
# Procedure, shortened: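 Postemergence spray on 1- to 4-leaf plants (2–18 cm); greenhouse 13–15 d; visual rating vs controls, 0 = no effect, 100 = complete control; dash = not tested.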
# [10] = tested on: barnyardgrass (Echinochloa crus-galli); assay: Test B flooded paddy test plant response
# Procedure, shortened: (§2)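 2-leaf plants; pots flooded 3 cm above soil; compound added to paddy water; depth maintained. Greenhouse 13–15 d. Visual rating vs controls, 0 (no effect) to 100 (complete control); dash = no result.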
# [11] = tested on: ducksalad (Heteranthera limosa); assay: Test B flooded paddy test plant response
# Procedure, shortened: as §2
# [12] = tested on: rice (Oryza sativa); assay: Test B flooded paddy test plant response
# Procedure, shortened: as §2
# [13] = tested on: umbrella sedge (Cyperus difformis); assay: Test B flooded paddy test plant response
# Procedure, shortened: as §2
# [14] = Postemergence, 31 g ai/ha, 0 to 100 scale, 0 no effect, 100 complete control
# [15] = Postemergence, 125 g ai/ha, 0 to 100 scale, 0 no effect, 100 complete control
# [16] = Preemergence, 31 g ai/ha, 0 to 100 scale, 0 is no effect, 100 is complete control
# [17] = Preemergence, 125 g ai/ha, 0 to 100 scale (0 no effect, 100 complete control)
# [18] = Flood (flooded paddy test), 62 g ai/ha, scale 0 to 100, 0 no effect, 100 complete control
# [19] = Flood (flooded paddy test), 125 g ai/ha, scale 0 to 100, 0 no effect, 100 complete control
# [20] = Flood (flooded paddy test), 250 g ai/ha, scale 0 to 100, 0 no effect, 100 complete control
# [21] = Flood, 31 g ai/ha, scale 0 to 100
structure (smiles),measurement,setting,value
CCCC(=O)Oc1cnn(C)c(=O)c1-n1nc(-c2ccc(Cl)cc2)cc1C [Compound 56],"Plant response rating, Barnyardgrass",[1]; [14],100
same,"Plant response rating, Barnyardgrass",[1]; [15],100
same,"Plant response rating, Barnyardgrass",[1]; [16],80
same,"Plant response rating, Barnyardgrass",[1]; [17],100
same,"Plant response rating, Corn",[2]; [14],90
same,"Plant response rating, Corn",[2]; [15],100
same,"Plant response rating, Corn",[2]; [16],40
same,"Plant response rating, Corn",[2]; [17],80
same,"Plant response rating, Foxtail, Giant",[3]; [14],100
same,"Plant response rating, Foxtail, Giant",[3]; [15],100
same,"Plant response rating, Foxtail, Giant",[3]; [16],90
same,"Plant response rating, Foxtail, Giant",[3]; [17],100
same,"Plant response rating, Crabgrass, Large",[4]; [14],80
same,"Plant response rating, Crabgrass, Large",[4]; [15],100
same,"Plant response rating, Crabgrass, Large",[4]; [16],70
same,"Plant response rating, Crabgrass, Large",[4]; [17],100
same,"Plant response rating, Morningglory",[5]; [14],0
same,"Plant response rating, Morningglory",[5]; [15],0
same,"Plant response rating, Morningglory",[5]; [16],0
same,"Plant response rating, Morningglory",[5]; [17],0
same,"Plant response rating, Pigweed",[6]; [14],0
same,"Plant response rating, Pigweed",[6]; [15],0
same,"Plant response rating, Pigweed",[6]; [16],0
same,"Plant response rating, Pigweed",[6]; [17],0
same,"Plant response rating, Velvetleaf",[7]; [14],0
same,"Plant response rating, Velvetleaf",[7]; [15],0
same,"Plant response rating, Velvetleaf",[7]; [16],0
same,"Plant response rating, Velvetleaf",[7]; [17],0
same,"Plant response rating, Wheat",[8]; [14],70
same,"Plant response rating, Wheat",[8]; [15],80
same,"Plant response rating, Wheat",[8]; [16],20
same,"Plant response rating, Wheat",[8]; [17],80
same,Canarygrass plant response rating,[9],50
same,"Plant response rating, Canarygrass","[9]; 16 g ai/ha, scale 0 to 100",85
same,"Plant response rating, Canarygrass","[9]; 31 g ai/ha, scale 0 to 100",90
same,"Plant response rating, Canarygrass","[9]; 62 g ai/ha, scale 0 to 100, 0 no effect, 100 complete control",95
same,"Plant response rating, Barnyardgrass",[10]; [18],0
same,"Plant response rating, Barnyardgrass",[10]; [19],20
same,"Plant response rating, Barnyardgrass",[10]; [20],60
same,"Plant response rating, Barnyardgrass",[10]; [21],0
same,"Plant response rating, Ducksalad",[11]; [18],0
same,"Plant response rating, Ducksalad",[11]; [19],40
same,"Plant response rating, Ducksalad",[11]; [20],75
same,"Plant response rating, Ducksalad",[11]; [21],0
same,"Plant response rating, Rice",[12]; [18],0
same,"Plant response rating, Rice",[12]; [19],0
same,"Plant response rating, Rice",[12]; [20],10
same,"Plant response rating, Rice",[12]; [21],0
same,"Plant response rating, Sedge, Umbrella",[13]; [18],75
same,"Plant response rating, Sedge, Umbrella",[13]; [19],85
same,"Plant response rating, Sedge, Umbrella",[13]; [20],85
same,"Plant response rating, Sedge, Umbrella",[13]; [21],70
Cc1cc(-c2ccc(C(F)(F)F)c(F)c2)nn1-c1c(O)c(C(F)(F)F)nn(C)c1=O [Compound 44],"Plant response rating, Barnyardgrass",[1]; [14],100
same,"Plant response rating, Barnyardgrass",[1]; [15],100
same,"Plant response rating, Barnyardgrass",[1]; [16],80
same,"Plant response rating, Barnyardgrass",[1]; [17],100
same,"Plant response rating, Corn",[2]; [14],70
same,"Plant response rating, Corn",[2]; [15],90
same,"Plant response rating, Corn",[2]; [16],30
same,"Plant response rating, Corn",[2]; [17],80
same,"Plant response rating, Foxtail, Giant",[3]; [14],90
same,"Plant response rating, Foxtail, Giant",[3]; [15],100
same,"Plant response rating, Foxtail, Giant",[3]; [16],80
same,"Plant response rating, Foxtail, Giant",[3]; [17],100
same,"Plant response rating, Crabgrass, Large",[4]; [14],50
same,"Plant response rating, Crabgrass, Large",[4]; [15],100
same,"Plant response rating, Crabgrass, Large",[4]; [16],20
same,"Plant response rating, Crabgrass, Large",[4]; [17],100
same,"Plant response rating, Morningglory",[5]; [14],0
same,"Plant response rating, Morningglory",[5]; [15],0
same,"Plant response rating, Morningglory",[5]; [16],0
same,"Plant response rating, Morningglory",[5]; [17],0
same,"Plant response rating, Pigweed",[6]; [14],0
same,"Plant response rating, Pigweed",[6]; [15],0
same,"Plant response rating, Pigweed",[6]; [16],0
same,"Plant response rating, Pigweed",[6]; [17],0
same,"Plant response rating, Velvetleaf",[7]; [14],0
same,"Plant response rating, Velvetleaf",[7]; [15],0
same,"Plant response rating, Velvetleaf",[7]; [16],0
same,"Plant response rating, Velvetleaf",[7]; [17],0
same,"Plant response rating, Wheat",[8]; [14],70
same,"Plant response rating, Wheat",[8]; [15],80
same,"Plant response rating, Wheat",[8]; [16],40
same,"Plant response rating, Wheat",[8]; [17],80
same,Canarygrass plant response rating,[9],50
same,"Plant response rating, Canarygrass","[9]; 16 g ai/ha, scale 0 to 100",90
same,"Plant response rating, Canarygrass","[9]; 31 g ai/ha, scale 0 to 100, 0 no effect, 100 complete control",90
same,"Plant response rating, Barnyardgrass",[10]; [18],0
same,"Plant response rating, Barnyardgrass",[10]; [19],30
same,"Plant response rating, Barnyardgrass",[10]; [20],50
same,"Plant response rating, Barnyardgrass",[10]; [21],0
same,"Plant response rating, Ducksalad",[11]; [18],0
same,"Plant response rating, Ducksalad",[11]; [19],70
same,"Plant response rating, Ducksalad",[11]; [20],70
same,"Plant response rating, Rice",[12]; [18],15
same,"Plant response rating, Rice",[12]; [19],20
same,"Plant response rating, Rice",[12]; [20],40
same,"Plant response rating, Rice",[12]; [21],0
same,"Plant response rating, Sedge, Umbrella",[13]; [18],0
same,"Plant response rating, Sedge, Umbrella",[13]; [19],20
same,"Plant response rating, Sedge, Umbrella",[13]; [20],30
same,"Plant response rating, Sedge, Umbrella",[13]; [21],0
